Test results reported in publication PMC4942689, “Deciphering the function of the CNGB1b subunit in olfactory CNG channels” (Scientific Reports, 2016).

How the values were obtained:
[1] = target: T1, CNGA2:A4:B1b channels (Rattus norvegicus, UniProt A0A8I5ZN27+Q00195+Q64359); assay: Activation and deactivation time courses after fast concentration jumps; format: biochemical; settings: +10 mV, monoexponential fit
T1 construct: expressed in transfected cells; host or cells: Xenopus laevis oocytes (cRNA injection 2:1:1), excised inside-out patches
T1 sequence (Q00195 whole entry): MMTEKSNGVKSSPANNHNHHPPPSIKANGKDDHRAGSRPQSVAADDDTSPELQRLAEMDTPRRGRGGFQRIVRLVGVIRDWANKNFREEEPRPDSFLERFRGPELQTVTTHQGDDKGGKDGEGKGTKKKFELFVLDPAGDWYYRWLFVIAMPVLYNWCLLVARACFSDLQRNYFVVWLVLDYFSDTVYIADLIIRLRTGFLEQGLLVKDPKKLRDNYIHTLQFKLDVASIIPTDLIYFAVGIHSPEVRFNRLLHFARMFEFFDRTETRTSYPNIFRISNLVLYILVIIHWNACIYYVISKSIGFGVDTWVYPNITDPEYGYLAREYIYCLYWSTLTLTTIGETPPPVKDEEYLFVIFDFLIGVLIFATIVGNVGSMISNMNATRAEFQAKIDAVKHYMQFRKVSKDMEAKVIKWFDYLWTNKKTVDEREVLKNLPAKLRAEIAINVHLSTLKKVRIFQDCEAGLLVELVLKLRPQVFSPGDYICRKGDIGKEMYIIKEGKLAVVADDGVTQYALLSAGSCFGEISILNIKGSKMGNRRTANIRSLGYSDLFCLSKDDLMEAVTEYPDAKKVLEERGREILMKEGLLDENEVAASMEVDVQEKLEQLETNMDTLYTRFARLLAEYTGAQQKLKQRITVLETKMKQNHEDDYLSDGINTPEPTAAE
T1 sequence (Q64359 whole entry): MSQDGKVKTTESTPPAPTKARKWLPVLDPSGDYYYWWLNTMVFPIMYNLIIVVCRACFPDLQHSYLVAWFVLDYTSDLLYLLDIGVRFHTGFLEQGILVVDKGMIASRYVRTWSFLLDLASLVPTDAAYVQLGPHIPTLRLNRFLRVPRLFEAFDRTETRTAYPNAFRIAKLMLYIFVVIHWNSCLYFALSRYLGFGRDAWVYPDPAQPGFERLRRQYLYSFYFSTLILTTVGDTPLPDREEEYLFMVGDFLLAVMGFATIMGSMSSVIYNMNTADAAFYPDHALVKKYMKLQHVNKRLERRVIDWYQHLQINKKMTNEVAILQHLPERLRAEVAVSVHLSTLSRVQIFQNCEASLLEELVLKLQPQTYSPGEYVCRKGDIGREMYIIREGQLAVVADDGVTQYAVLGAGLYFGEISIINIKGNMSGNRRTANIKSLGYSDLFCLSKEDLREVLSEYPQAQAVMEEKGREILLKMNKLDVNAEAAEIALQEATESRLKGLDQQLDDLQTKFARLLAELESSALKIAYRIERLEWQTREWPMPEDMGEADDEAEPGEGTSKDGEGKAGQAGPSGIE
T1 sequence (A0A8I5ZN27 1-858 isoform A0A8I5ZN27-2): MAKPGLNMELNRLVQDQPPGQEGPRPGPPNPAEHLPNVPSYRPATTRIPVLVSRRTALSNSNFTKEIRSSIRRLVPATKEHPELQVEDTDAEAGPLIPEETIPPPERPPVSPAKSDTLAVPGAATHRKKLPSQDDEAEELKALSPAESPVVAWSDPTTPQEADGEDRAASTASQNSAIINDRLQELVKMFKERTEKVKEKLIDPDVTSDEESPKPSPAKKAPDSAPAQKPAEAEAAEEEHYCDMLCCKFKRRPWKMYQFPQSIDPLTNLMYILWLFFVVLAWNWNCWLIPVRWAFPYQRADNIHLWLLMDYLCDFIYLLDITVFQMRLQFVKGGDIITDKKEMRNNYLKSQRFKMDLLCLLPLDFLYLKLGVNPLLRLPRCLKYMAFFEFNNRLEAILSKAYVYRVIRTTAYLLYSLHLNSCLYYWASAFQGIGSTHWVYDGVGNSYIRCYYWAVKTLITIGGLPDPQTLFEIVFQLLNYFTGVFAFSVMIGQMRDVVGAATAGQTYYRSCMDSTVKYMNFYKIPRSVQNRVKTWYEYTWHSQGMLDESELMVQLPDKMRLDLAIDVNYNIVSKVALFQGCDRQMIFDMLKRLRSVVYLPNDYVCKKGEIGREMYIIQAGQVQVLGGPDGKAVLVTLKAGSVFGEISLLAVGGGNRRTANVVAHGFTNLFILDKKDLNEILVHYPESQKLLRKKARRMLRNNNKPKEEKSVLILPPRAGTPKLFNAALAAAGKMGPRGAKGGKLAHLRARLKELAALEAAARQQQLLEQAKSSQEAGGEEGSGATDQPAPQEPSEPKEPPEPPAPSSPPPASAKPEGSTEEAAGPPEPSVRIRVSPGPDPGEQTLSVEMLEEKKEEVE
Experimental: To characterize the contribution of each subunit to the kinetics of channel gating, we also studied activation and deactivation time courses for CNGA2:A4:B1b, CNGA2, CNGA2RE:A4RE:B1b and CNGA2RE:A4:B1b RE channels. Fast concentration jumps from zero to 10 μM cGMP and back to zero were applied with the help of a piezo-driven switch pipette. Activation (Fig. 4a) and deactivation (Fig. 4b) time courses were fitted with a single exponential or the sum of two exponential functions in case of the CNGA2RE:A4RE:B1b channel. The obtained time constants are shown in bar graphs below the traces. In case of the biexponential time courses a mean time constant was obtained according to equation (S1) (Supplementary Information). CNGA2RE:A4RE:B1b channel activation triggered by CNGB1b only is the slowest, followed by that of CNGA4 only in CNGA2RE:A4:B1bRE channels and homotetrameric CNGA2 channels.
Figure 4 Effects of the CNGB1b and CNGA4 subunit on the kinetics of channel activation and deactivation. […]
Patch-clamp experiments were performed using an Axopatch 200B amplifier (Molecular Devices LLC, CA, U.S.A.) in the inside-out configuration. […] The currents were measured at +10 mV or, if mentioned, at +100 mV.

[2] = target: T2, CNGA2TM:A4RE:B1bRE (Rattus norvegicus, UniProt A0A8I5ZN27+Q00195+Q64359, R1106E/R430E/T539M); assay: Channel activation during confocal patch-clamp fluorometry; format: biochemical; settings: 10 μM fcGMP; all four binding sites disabled
T2 construct: expressed in transfected cells; host or cells: Xenopus laevis oocytes (cRNA injection), excised inside-out patches
T2 sequence (Q00195 whole entry T539M): as the sequence (Q00195 whole entry) above, with T539M counted along it
T2 sequence (Q64359 whole entry R430E): as the sequence (Q64359 whole entry) above, with R430E counted along it
T2 sequence (A0A8I5ZN27 1-858 isoform A0A8I5ZN27-2 R657E): as the sequence (A0A8I5ZN27 1-858 isoform A0A8I5ZN27-2) above, with R657E counted along it
Experimental: (§1) To verify the hypothesis that the CNGB1b subunit in CNGA2:A4:B1b channels binds cyclic nucleotides, we coexpressed CNGB1b with CNGA4RE and either CNGA2RE or CNGA2TM and measured ligand binding in the presence of 10 μM fcGMP. […] To verify the specificity of the binding to the CNGB1b subunit in these heterotetrameric channels, we coexpressed the CNGB1bRE subunit with CNGA2RE and CNGA4RE.
(§2) Figure 2 In a CNGA2:A4 background the CNGB1b subunit binds both fcGMP and fHcAMP and activates the channel. (a) Binding of fcGMP to the CNGB1b subunit evokes channel activation. Binding of fcGMP to CNGB1b was observed when coexpressed with either CNGA2RE:A4RE or CNGA2TM:A4RE (upper diagram). […] (b) Binding of fHcAMP to CNGB1b was observed when coexpressed with both CNGA2RE and CNGA4RE. When disabling the binding domain of CNGB1b, the fluorescence intensity was nearly abolished. Correspondingly, CNGA2RE:A4RE:B1b channels were activated by the ligand only when the CNGB1b binding site was available.
(§3) Patch-clamp experiments were performed using an Axopatch 200B amplifier (Molecular Devices LLC, CA, U.S.A.) in the inside-out configuration. The patch pipettes for recording of macroscopic currents were pulled from borosilicate glass tubing (outer diameter 2.0 mm, inner diameter 1.0 mm; Hilgenberg GmbH, Germany). The initial resistance was 0.7–1.3 MΩ. The patches were formed as pushed inside-out patches. […] Cyclic nucleotide concentration jumps were performed using a double-barreled glass pipette mounted on a piezo-driven device. Intracellular (bath) and extracellular (pipette) solutions contained (mM) 150 KCl, 1 EGTA, 5 Hepes, pH = 7.4 with KOH. […] Currents in the absence of the cyclic nucleotide were subtracted. All patches included in this study were first tested for channel expression in the presence of a saturating ligand concentration. Only patches with large current, i.e. a large number of channels, were included in our statistics. The currents were measured at +10 mV or, if mentioned, at +100 mV.
(§4) The ligand binding was measured in macropatches by patch-clamp fluorometry[41][42] combined with confocal microscopy. […] Recordings were performed with an LSM 510 or 710 confocal microscope (Zeiss, Jena, Germany) and were triggered by the ISO3 software (MFK, Niedernhausen, Germany). To distinguish between the fluorescence of the unbound ligands from that of the bound ligands, a second dye, DY647 (Dyomics, Jena, Germany), was added to the bath solution. The 543-nm and 633-nm lines of a He-Ne laser were used to excite fcAMP/fcGMP and DY647, respectively. The method of confocal patch-clamp fluorometry has been described in detail previously.

[3] = target: T3, CNGA2TM:A4RE:B1b (Rattus norvegicus, UniProt A0A8I5ZN27+Q00195+Q64359, R430E/T539M); assay: as above; format: biochemical; settings: 10 μM fcGMP; normalized to current at 4 mM cGMP
T3 construct: expressed in transfected cells; host or cells: Xenopus laevis oocytes (cRNA injection), excised inside-out patches
T3 sequence (Q00195 whole entry T539M): as the sequence (Q00195 whole entry) above, with T539M counted along it
T3 sequence (Q64359 whole entry R430E): as the sequence (Q64359 whole entry) above, with R430E counted along it
T3 sequence (A0A8I5ZN27 1-858 isoform A0A8I5ZN27-2, stated change not applied): as the sequence (A0A8I5ZN27 1-858 isoform A0A8I5ZN27-2) above
Experimental: as §1, §2, §3, §4

[4] = target: T4, CNGA2RE:A4RE:B1bRE (Rattus norvegicus, UniProt A0A8I5ZN27+Q00195+Q64359, R1106E/R430E/R538E); assay: as above; format: biochemical; settings: 10 μM fcGMP; all four binding sites disabled
T4 construct: expressed in transfected cells; host or cells: Xenopus laevis oocytes (cRNA injection), excised inside-out patches
T4 sequence (Q00195 whole entry R538E): as the sequence (Q00195 whole entry) above, with R538E counted along it
T4 sequence (Q64359 whole entry R430E): as the sequence (Q64359 whole entry) above, with R430E counted along it
T4 sequence (A0A8I5ZN27 1-858 isoform A0A8I5ZN27-2 R657E): as the sequence (A0A8I5ZN27 1-858 isoform A0A8I5ZN27-2) above, with R657E counted along it
Experimental: as §1, §2, §3, §4

[5] = target: T5, CNGA2RE:A4RE:B1b (Rattus norvegicus, UniProt A0A8I5ZN27+Q00195+Q64359, R430E/R538E); assay: Ligand binding, confocal patch-clamp fluorometry; set-up: key to Ligand binding to CNGA4 / Ligand binding to CNGB1b: +: ligand binding to the respective modulatory subunits was either observed or not; −: ligand binding to the respective modulatory subunits was either observed or not
T5 construct: expressed in transfected cells; host or cells: Xenopus laevis oocytes (cRNA injection), excised inside-out patches
T5 sequence (Q00195 whole entry R538E): as the sequence (Q00195 whole entry) above, with R538E counted along it
T5 sequence (Q64359 whole entry R430E): as the sequence (Q64359 whole entry) above, with R430E counted along it
T5 sequence (A0A8I5ZN27 1-858 isoform A0A8I5ZN27-2, stated change not applied): as the sequence (A0A8I5ZN27 1-858 isoform A0A8I5ZN27-2) above
From the text: The channels to be studied were expressed in Xenopus oocytes. We first tested the subunit composition in our channels when coexpressing different combinations of subunits by single-channel recordings. For CNGA2:A4, CNGA2:B1b and CNGA2:A4:B1b channels we exclusively obtained the specific and easily distinguishable single-channel activity reported earlier when injecting respective amounts of RNA[7][13]. We therefore assumed that the channels formed had always the expected subunit composition. The specific binding of cyclic nucleotides and the activation of the CNG channels were measured in parallel by means of confocal patch-clamp fluorometry in excised patches, using fluorescent cyclic nucleotide derivatives. The method has been described previously.
as §1, §4

[6] = 10 μM, construct CNGA2RE:A4RE:B1b

Row | Compound | deactivation time constant ([1]; concentration jump from 10 μM back to zero) | activation time constant ([1]; concentration jump from zero to 10 μM) | activation [2] | activation (I/Imax) [3] [%] | activation [4] | binding to the CNGB1b subunit (in words) ([5]; 10 μM fcGMP, CNGB1b with CNGA4RE and CNGA2RE) | Ligand binding to CNGA4 [5, 6] | Ligand binding to CNGB1b [5, 6]
1 | Nc1nc2c(ncn2[C@@H]2O[C@@H]3COP(=O)(O)O[C@H]3[C@H]2O)c(=O)[nH]1 [cGMP] | ~ 120 ms | ~ 17 ms |  |  |  |  |  | 
2 | 8-[DY-547]-AET-cGMP [fcGMP] |  |  | did not trigger activation | 1.7 ± 0.6 | did not trigger activation | robust binding | − | +
